In patent US5219884A, “Immunosuppressant” (Taito Co., Ltd., priority 1990, dated 1993):
Where two headings read alike, the source gives them in different places.

How the values were obtained:
[1] = system: alloreactive cytotoxic T cells (EL4 target cells); assay: suppression of induction of alloreactive cytotoxic T cells in mouse allogenic MLC (51Cr release); format: cell-based
Description: The spleen cells suspension, 0.5 ml, (2×10^7 cells/ml) of BALB/c mouse (H-2^d) prepared in the same way as in Experimental Example 1, 0.5 ml of a suspension of mitomycin C-treated C57BL/6 mouse (H-2^b) spleen cells (2×10^7 cell/ml) and 1.0 ml of the test substance were added to 24-well multidishes, and cultured at 37° C. in an atmosphere of 5% carbon dioxide for 6 days.
After termination of the culture, the cells were harvested by centrifugation, and the concentration of the cell suspension was adjusted to 5×10^6 -6.25×10^5 cells/ml by using the RPMI1640 culture medium supplemented with 10% FCS, and used as the effector cell suspension.
The target cells used were leukemia cells EL4 from the syngenic (H-2^b) C57BL/b mouse as used for preparation of the stimulator cells. By incubating 10^6 EL4 cells in the presence of 100 μCi of Na2^51 CrO4 (1 mCi/ml) at 37° C. for 1 hour to incorporate ^51 Cr into the cytoplasm. The cell were washed, adjusted to the concentration of 10^4 cells/ml and used as the target cell suspension.
For the assay of the cytotoxic activity, 0.1 ml of the effector cell suspension and 0.1 ml of the target cell suspension were added to 96-well flat-bottomed plates, and cultured at 37° C. for 4 hours. The amount of ^51 Cr released into the supernatant was determined and the cytotoxic activity was calculated by the following formula. [formula]

[2] = system: mouse spleen cells stimulated with pokeweed mitogen (PWM); assay: suppression of blastogenic response of mouse spleen cells by PWM; format: cell-based; details: for inhibition at 0.1 µg/mL / inhibition at 0.01 µg/mL / inhibition at 1 µg/mL: Mus musculus, 76 h; for inhibition at 0.1 µg/mL: read-out: Suppression
Description: The effect on the mouse blastogenic response of mouse spleen cells stimulated with phytohemagglutinin (PHA) or with pokeweed mitogen (PWM) was examined as follows:
The spleen was resected from 5- to 8-week-old male […] BALB/c mice, and single cell suspension of spleen cells was prepared by using the RPMI1640 culture medium supplemented with 5% FCS. After hemolytic treatment, the concentration of the suspension was adjusted to 5×10^6 cells/ml by using the RPMI1640 culture medium supplemented with 10^-4 M 2-mercaptoethanol and 20% FCS, to which PHA or PWM was added. One hundred μl of the cell suspension was added to each well of 96-well microculture plates to which 100 μl per well of the test solution had been added (5×10^5 mouse spleen cells per well). After culturing at 37° C. in an atmosphere of 5% carbon dioxide for 72 hours, 0.5 μCi/well of ^3 H-thymidine was added and cultured under the same conditions for further 4 hours. After termination of the culture, the cells were harvested by a cell harvester, and the radioactivity incorporated into the cells was measured by a liquid scintillation counter, which was used as the index of blastogenic response of mouse spleen cells.

[3] = system: IL2 production in mouse allogenic MLC; assay: suppression of IL2 production in mouse allogenic MLC; format: cell-based; details: for inhibition at 0.01 µg/mL / inhibition at 0.1 µg/mL / inhibition at 1 µg/mL / inhibition at 10 µg/mL: Mus musculus, 48 h, read-out: Suppression
Description: Mouse allogenic MLC was carried out as follows:
The respondor cell suspension and the stimulator cell suspension (0.5 ml each) prepared in the same way as in Experimental Example 1 together with 1 ml of test substance were added to 24-well multidishes, and cultured at 37° C. in an atmosphere of 5% carbon dioxide for 2 days. After termination of the culture, the supernatant was collected and used as the supernatant of mouse allogenic MLC.
The IL2 activity in the supernatants of mouse allogenic MLC and the supernatants of PHA-stimulated mouse spleen cells culture was assayed as follows: IL2-dependent mouse cell line CTLL-2 cells were suspended in the RPMI1640 culture medium supplemented with 30% FCS to the concentration of 10^5 cells/ml, and 100 μl of the suspension was added to each well of 96-well microculture plates in which 100 μl of the supernatant of the MLC described above had been placed. After culturing at 37° C. in an atmosphere of 5% carbon dioxide for 20 hours, 0.5 μCi/well of ^3 H-thymidine was added, and incubated for 4 hours under the same conditions. After termination of the culture, the cells were harvested by a cell harvester, and the radioactivity incorporated into the cells was measured by a liquid scintillation counter. IL2 activity was expressed in U/ml as the titer at various concentrations at which the ^3 H-thymidine incorporation was 50% of the maximum.

[4] = system: IL3 production in PHA-stimulated mouse spleen cells; assay: suppression of IL3 production in PHA-stimulated mouse spleen cells; format: cell-based; details: for inhibition at 0.01 µg/mL / inhibition at 0.1 µg/mL / inhibition at 1 µg/mL / inhibition at 10 µg/mL: Mus musculus, read-out: Suppression
Description: The supernatant of mouse allogenic MLC and the supernatant of PHA-stimulated mouse spleen cells culture were prepared in the same manner as in Experimental Example 6.
The IL3 activity in the supernatant described above was assayed as follows: IL3-dependent mouse cell line FDC-P2 cells were suspended in the RPMI1640 culture medium supplemented with 10% FCS to the concentration of 10^5 cells/ml, and 100 μl of the suspension was added to each well of 96-well microculture plates in which 100 μl per well of the two-fold serial dilutions of the supernatant described above had been placed. After culturing at 37° C. in an atmosphere of 5% carbon dioxide for 20 hours, 0.5 μCi/well of ^3 H-thymidine was added, and cultured for further 4 hours under the same conditions. After termination of the culture, the cells were harvested by a cell harvester, and the radioactivity incorporated into the cells was measured by a liquid scintillation counter. The IL3 activity was expressed in U/ml as the titer at the concentrations at which the amount of ^3 H-thymidine incorporated was 50% of the maximum.

KATOIII = assay: in vitro; format: cell-based, human
[5] = 0.1 μg/ml, effector:target 25:1
[6] = 0.1 μg/ml, effector:target 50:1
[7] = 0.1 μg/ml, effector:target 100:1

SMILES | Amount of 51Cr release [1, 5] | Amount of 51Cr release [1, 6] | Amount of 51Cr release [1, 7] | inhibition at 0.01 µg/mL ([2]; PWM (1/100), 0.01 μg/ml) | inhibition at 1 µg/mL ([2]; PWM (1/100), 1 μg/ml) | 3H-thymidine uptake ([2]; PWM (1/100), 0.01 μg/ml) | 3H-thymidine uptake ([2]; PWM (1/100), 0.1 μg/ml) | 3H-thymidine uptake ([2]; PWM (1/100), 1 μg/ml) | IL2 activity ([3]; 0.01 μg/ml) | IL2 activity ([3]; 0.1 μg/ml) | IL2 activity ([3]; 1 μg/ml) | IL2 activity ([3]; 10 μg/ml) | IL3 activity ([4]; 0.01 μg/ml) | IL3 activity ([4]; 0.1 μg/ml) | IL3 activity ([4]; 1 μg/ml) | IL3 activity ([4]; 10 μg/ml) | Absorbancy (KATOIII; 0.1 μg/ml) | Absorbancy (KATOIII; 1.0 μg/ml) | Absorbancy (KATOIII; 10.0 μg/ml) | Absorbancy (KATOIII; 100.0 μg/ml) | further results
CCCCCCC(=O)CCCCCC/C=C/CC(O)C(O)C(N)(CO)C(=O)O (centres unmarked) [Example 1] | 764 cpm | 773 cpm | 771 cpm | 61% | 84.5% | 13499 cpm | 9895 cpm | 6529 cpm | 4.0 U/ml | 2.0 U/ml | 1.1 U/ml | < 1 U/ml | 4.0 U/ml | < 2 U/ml | < 2 U/ml | < 2 U/ml | 0.972 | 0.961 | 0.869 | 0.041 | Amount of 51Cr release ([1]; 0.01 μg/ml, effector:target 25:1): 816 cpm; Amount of 51Cr release ([1]; 0.01 μg/ml, effector:target 50:1): 783 cpm; Amount of 51Cr release ([1]; 0.01 μg/ml, effector:target 100:1): 808 cpm; inhibition at 0.1 µg/mL [2]: 73.2%; inhibition at 0.01 µg/mL [3]: 59.2%; inhibition at 0.1 µg/mL [3]: 79.6%; inhibition at 1 µg/mL [3]: 88.8%; inhibition at 10 µg/mL [3]: > 90%; inhibition at 0.01 µg/mL [4]: 76.6%; inhibition at 0.1 µg/mL [4]: > 90%; inhibition at 1 µg/mL [4]: > 90%; inhibition at 10 µg/mL [4]: > 90%; Absorbancy (KATOIII; 0.01 μg/ml): 0.990
CCCCCCC(=O)CCCCCC/C=C/CC1OC(=O)C(N)(CO)C1O (centres unmarked) [Example 4] | 767 cpm | 780 cpm | 761 cpm | 41.4% | 77.1% | 19335 cpm | 9325 cpm | 8712 cpm | 4.0 U/ml | 1.7 U/ml | < 1 U/ml | < 1 U/ml | 9.1 U/ml | 2.8 U/ml | 2.3 U/ml | < 2 U/ml | 0.407 | 0.401 | 0.319 | 0.009 | Cytotoxic activity [1, 5]: 0%; Cytotoxic activity [1, 6]: 0%; Cytotoxic activity [1, 7]: 0%; inhibition at 0.1 µg/mL ([2]; PWM (1/100), 0.1 μg/ml): 75.1%; inhibition at 0.01 µg/mL ([3]; 0.01 μg/ml): 59.2%; inhibition at 0.1 µg/mL ([3]; 0.1 μg/ml): 82.7%; inhibition at 1 µg/mL ([3]; 1 μg/ml): > 90%; inhibition at 10 µg/mL ([3]; 10 μg/ml): > 90%; inhibition at 0.01 µg/mL ([4]; 0.01 μg/ml): 46.8%; inhibition at 0.1 µg/mL ([4]; 0.1 μg/ml): 83.6%; inhibition at 1 µg/mL ([4]; 1 μg/ml): 86.5%; inhibition at 10 µg/mL ([4]; 10 μg/ml): > 90%
